# From patent US20230242947A1, “GENETICALLY ENGINEERED RHODOPSEUDOMONAS PALUSTRIS” (priority 2021, published 2023)
# Where two headings read alike, the source gives them in different places.
# Tests used:
# [1] = system: WT TIE-1 with an empty vector (pRhokS-2); assay type: cell-based, Rhodopseudomonas palustris TIE-1; details: for Doubling time: WT with pAB423; for effect on TIE-1 growth of the amount produced in the study: amounts produced by the engineered strains (n-butanol up to 4.98 mg/L; acetone up to about 290 mg/L)
# Description: Toxicity Study. WT TIE-1 with an empty vector (pRhokS-2) was used to test the tolerance of TIE-1 for acetone and n-butanol. To test the tolerance, 0, 0.25, 0.5, 1, or 2% n-butanol (v/v), or 0, 0.1, 0.25, 0.5, 1, or 2% acetone (v/v), was added to FW media with acetate (10 mM). Growth was monitored by recording OD660 overtime.
# [2] = system: phiC31 integrase (Streptomyces phage phiC31?); experiment: cell_activity
compound,measurement,setting,value
CCCCO [n-butanol],Doubling time,[1]; n-butanol 2025 mg/L in media,20.091 h
same,Doubling time,[1]; n-butanol 4050 mg/L in media,No growth
same,Doubling time,[1]; n-butanol 8100 mg/L in media,No growth
same,Doubling time,[1]; n-butanol 16200 mg/L in media,No growth
same,effect on TIE-1 growth of the amount produced in the study,[1],does not limit the growth of TIE-1
same,lowest inhibitory concentration of n-butanol for TIE-1,"[1]; toxicity assay, FW media with acetate (10 mM)",4050 mg/L
phiC31 attP site (on suicide plasmid pWB081/pWB088),activity,"[2]; attP donor plasmid partner of attB, same integration assay, about 80% with inducible plasmid system",100%
phiC31 attB site (in TIE-1 genome at glmUSX-recG locus),activity,"[2]; attB x attP integration of mcherry in R. palustris TIE-1, editing efficiency 100% for genome-based system and constitutive plasmid system, about 80% for …",100%
CC(C)=O [acetone],Doubling time,[1]; acetone 1960 mg/L in media,6.74 h
same,Doubling time,[1]; acetone 3920 mg/L in media,5.82 h
same,Doubling time,[1]; acetone 7840 mg/L in media,5.56 h
same,Doubling time,[1]; acetone 15680 mg/L in media,4.88 h
same,effect on TIE-1 growth of the amount produced in the study,[1],does not limit TIE-1's growth
